According to PubChem BioAssay (NCI):
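In this assay, cells in 96-well plates receive the compound at five concentrations for 48 hours. Endpoints are linearly interpolated between the surrounding concentrations. Here, GI50 denotes the concentration required for 50% inhibition of growth. TGI denotes the concentration required for complete inhibition of growth.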

Assays:
Assay in all cases: growth of human tumour cells (NCI), 48 h; in the data active means GI50 below about 0.43 µM; inactive means the rest
MDA-MB-468 breast = test system: MDA-MB-468 breast
OVCAR-8 ovarian = test system: OVCAR-8 ovarian
SF-268 CNS = test system: SF-268 CNS
CAKI-1 renal = test system: CAKI-1 renal
MDA-MB-231 breast = test system: MDA-MB-231 breast
HCT-116 colon = test system: HCT-116 colon
OVCAR-5 ovarian = test system: OVCAR-5 ovarian
SK-MEL-5 melanoma = test system: SK-MEL-5 melanoma
SF-539 CNS = test system: SF-539 CNS
UO-31 renal = test system: UO-31 renal
786-0 renal = test system: 786-0 renal
OVCAR-3 ovarian = test system: OVCAR-3 ovarian
K-562 leukemia = test system: K-562 leukemia
A549 NSCLC = test system: A549 NSCLC
HOP-92 NSCLC = test system: HOP-92 NSCLC
HOP-62 NSCLC = test system: HOP-62 NSCLC
SF-295 CNS = test system: SF-295 CNS
UACC-257 melanoma = test system: UACC-257 melanoma
KM12 colon = test system: KM12 colon
DU-145 prostate = test system: DU-145 prostate
EKVX NSCLC = test system: EKVX NSCLC
SR leukemia = test system: SR leukemia
NCI-H23 lung = test system: NCI-H23 lung
SNB-75 CNS = test system: SNB-75 CNS
MDA-MB-435 = test system: MDA-MB-435
NCI-H460 lung = test system: NCI-H460 lung
RPMI-8226 leukemia = test system: RPMI-8226 leukemia
HCC-2998 colon = test system: HCC-2998 colon
SK-MEL-2 melanoma = test system: SK-MEL-2 melanoma
HS 578T breast = test system: HS 578T breast
HT29 colon = test system: HT29 colon
ACHN renal = test system: ACHN renal
MALME-3M melanoma = test system: MALME-3M melanoma
SNB-19 CNS = test system: SNB-19 CNS
T-47D breast = test system: T-47D breast
TK-10 renal = test system: TK-10 renal
NCI-H226 lung = test system: NCI-H226 lung
PC-3 prostate = test system: PC-3 prostate
CCRF-CEM leukemia = test system: CCRF-CEM leukemia
BT-549 breast = test system: BT-549 breast
MCF7 breast = test system: MCF7 breast
IGROV1 ovarian = test system: IGROV1 ovarian
OVCAR-4 ovarian = test system: OVCAR-4 ovarian
RXF 393 renal = test system: RXF 393 renal
UACC-62 melanoma = test system: UACC-62 melanoma
NCI-H522 lung = test system: NCI-H522 lung
SW-620 colon = test system: SW-620 colon
SK-MEL-28 melanoma = test system: SK-MEL-28 melanoma
SK-OV-3 ovarian = test system: SK-OV-3 ovarian
LOX IMVI melanoma = test system: LOX IMVI melanoma
U251 CNS = test system: U251 CNS
HL-60(TB) leukemia = test system: HL-60(TB) leukemia
NCI/ADR-RES ovarian = test system: NCI/ADR-RES ovarian
A498 renal = test system: A498 renal
MOLT-4 leukemia = test system: MOLT-4 leukemia
SN12C renal = test system: SN12C renal
COLO 205 colon = test system: COLO 205 colon
M14 melanoma = test system: M14 melanoma
HCT-15 colon = test system: HCT-15 colon

COc1ccc(NC(=O)Cn2c(/C=C/c3cccc(Br)c3)nc3ccccc3c2=O)cc1
13.5 µM: TGI (U251 CNS)
8.06 µM: TGI (SF-539 CNS)
14.8 µM: TGI (786-0 renal)
21 µM: TGI (HOP-62 NSCLC)
32.5 µM: TGI (A498 renal)
8.8 µM: TGI (MDA-MB-231 breast)
inactive: GI50 (MDA-MB-468 breast) 6.25 µM | GI50 (OVCAR-8 ovarian) 10.5 µM | GI50 (SF-268 CNS) 13.9 µM | GI50 (CAKI-1 renal) 14 µM | GI50 (MDA-MB-231 breast) 1.93 µM | GI50 (HCT-116 colon) 5.67 µM | GI50 (OVCAR-5 ovarian) 15.6 µM | GI50 (SK-MEL-5 melanoma) > 36 µM | GI50 (SF-539 CNS) 2.94 µM | GI50 (UO-31 renal) 4.41 µM | GI50 (786-0 renal) 4.9 µM | GI50 (OVCAR-3 ovarian) 10.6 µM | GI50 (K-562 leukemia) > 36 µM | GI50 (A549 NSCLC) 11.4 µM | GI50 (HOP-92 NSCLC) 8.66 µM | GI50 (HOP-62 NSCLC) 6.47 µM | GI50 (SF-295 CNS) 6.79 µM | GI50 (UACC-257 melanoma) > 36 µM | GI50 (KM12 colon) > 36 µM | GI50 (DU-145 prostate) 13.5 µM | GI50 (EKVX NSCLC) > 36 µM | GI50 (SR leukemia) 1.06 µM | GI50 (NCI-H23 lung) 10.5 µM | GI50 (SNB-75 CNS) 0.801 µM | GI50 (MDA-MB-435) > 36 µM | GI50 (NCI-H460 lung) 15.7 µM | GI50 (RPMI-8226 leukemia) > 36 µM | GI50 (HCC-2998 colon) > 36 µM | GI50 (SK-MEL-2 melanoma) > 36 µM | GI50 (HS 578T breast) 2.73 µM | GI50 (HT29 colon) > 36 µM | GI50 (ACHN renal) 1.75 µM | GI50 (MALME-3M melanoma) 6.56 µM | GI50 (SNB-19 CNS) 11.4 µM | GI50 (T-47D breast) > 36 µM | GI50 (TK-10 renal) 5.4 µM | GI50 (NCI-H226 lung) 1.69 µM | GI50 (PC-3 prostate) > 36 µM | GI50 (CCRF-CEM leukemia) > 36 µM | GI50 (BT-549 breast) 3.62 µM | GI50 (MCF7 breast) 8.56 µM | GI50 (IGROV1 ovarian) > 36 µM | GI50 (OVCAR-4 ovarian) 2.17 µM | GI50 (RXF 393 renal) 4.39 µM | GI50 (UACC-62 melanoma) > 36 µM | GI50 (NCI-H522 lung) 17.6 µM | GI50 (SW-620 colon) > 36 µM | GI50 (SK-MEL-28 melanoma) > 36 µM | GI50 (SK-OV-3 ovarian) 7.25 µM | GI50 (LOX IMVI melanoma) 3.02 µM | GI50 (U251 CNS) 4.68 µM | GI50 (HL-60(TB) leukemia) > 36 µM | GI50 (NCI/ADR-RES ovarian) 7.1 µM | GI50 (A498 renal) 9.71 µM | GI50 (MOLT-4 leukemia) > 36 µM | GI50 (SN12C renal) 14.8 µM | GI50 (COLO 205 colon) > 36 µM | GI50 (M14 melanoma) 31.8 µM | GI50 (HCT-15 colon) > 36 µM
32.6 µM: TGI (HOP-92 NSCLC)
13.4 µM: TGI (TK-10 renal)
17.6 µM: TGI (RXF 393 renal)
30.8 µM: TGI (HS 578T breast)
9.64 µM: TGI (NCI-H226 lung)
> 36 µM: TGI (MDA-MB-468 breast) | TGI (OVCAR-8 ovarian) | TGI (SF-268 CNS) | TGI (CAKI-1 renal) | TGI (HCT-116 colon) | TGI (OVCAR-5 ovarian) | TGI (SK-MEL-5 melanoma) | TGI (OVCAR-3 ovarian) | TGI (K-562 leukemia) | TGI (A549 NSCLC) | TGI (SF-295 CNS) | TGI (UACC-257 melanoma) | TGI (KM12 colon) | TGI (DU-145 prostate) | TGI (EKVX NSCLC) | TGI (SR leukemia) | TGI (NCI-H23 lung) | TGI (MDA-MB-435) | TGI (NCI-H460 lung) | TGI (RPMI-8226 leukemia) | TGI (HCC-2998 colon) | TGI (SK-MEL-2 melanoma) | TGI (HT29 colon) | TGI (SNB-19 CNS) | TGI (T-47D breast) | TGI (PC-3 prostate) | TGI (CCRF-CEM leukemia) | TGI (BT-549 breast) | TGI (MCF7 breast) | TGI (IGROV1 ovarian) | TGI (UACC-62 melanoma) | TGI (NCI-H522 lung) | TGI (SW-620 colon) | TGI (SK-MEL-28 melanoma) | TGI (LOX IMVI melanoma) | TGI (HL-60(TB) leukemia) | TGI (NCI/ADR-RES ovarian) | TGI (MOLT-4 leukemia) | TGI (SN12C renal) | TGI (COLO 205 colon) | TGI (M14 melanoma) | TGI (HCT-15 colon)
9.94 µM: TGI (OVCAR-4 ovarian)
15.4 µM: TGI (UO-31 renal)
27.5 µM: TGI (SK-OV-3 ovarian)
27 µM: TGI (MALME-3M melanoma)
12.2 µM: TGI (ACHN renal)
3.27 µM: TGI (SNB-75 CNS)
